Where two headings read alike, the source gives them in different places.
Assays:
CCR5 [1] = details: cited from earlier work
neuropathic pain = details: previous research; cited from earlier work
[2] = test system: tyrosine hydroxylase (TH); test: TH protein levels in mesolimbic pathway, morphine abstinence (Western blot); assay type: in vivo, rat; details: RAP-103 + morphine, vs drug-naïve (P<0.05) and morphine only (P<0.01)
Experimental: For 10 d, rats were given two injections during the dark cycle. One injection (RAP-103 [1 mg/kg] or saline) was delivered IP, and 5 min later the second injection (morphine [5 mg/kg] or saline) was given SC. Brain tissue was collected 24 h after the last morphine or saline injection for protein analysis of chemokine and opioid markers in the ventral tegmental area (VTA), nucleus accumbens (NAC) and prefrontal cortex (PFC).
For immunoblotting experiments, tissue lysates were obtained using RIPA buffer, and were then homogenized. Samples were centrifuged for 15 minutes at 12,000 g. Supernatant were transferred to new tubes. […] Immunoreactive bands were quantified by Image Studio (Licor Ver 2.0) and normalized to the bands of GAPDH. […]
Respiratory depression data were analyzed by two-way ANOVA (RAP-103 pretreatment×morphine treatment) followed by a Bonferroni's multiple comparison test. Physical dependence data were analyzed by a Student's t-test. Self-administration (SA) time-course data for heroin and sucrose were analyzed by two-way ANOVA (RAP-103 treatment x day) followed by a Bonferroni's multiple comparison test. SA PR challenge data were analyzed by a Student's t-test. Protein and mRNA data were analyzed by two-way ANOVA (RAP-103 pretreatment x morphine treatment) followed by a Newman-Keuls post-hoc analysis. […]

[3] = assay type: in vivo, rodents and non-human primates (Rhesus macaque)
[4] = test system: morphine-induced respiratory depression
[5] = test system: sucrose self-administration; test: Sucrose self-administration (FR and PR); assay type: in vivo, rat (male Sprague Dawley); details: RAP-103 1 mg/kg IP; P>0.05 vs saline
Text: Adult male Sprague Dawley (226-275 g) were purchased from Taconic Laboratories and maintained on a 12-hour/12-hour light/dark cycle with the lights off at 9:30 a.m. in a temperature- and humidity-controlled animal care facility. For the duration of the experiment, rats were housed two per cage and given unrestricted access to food and water at all times when in the home cage.
Progressive ratio (PR) schedules of drug delivery are used to determine the ‘motivational’ state of an animal and drug reinforcing efficacy. A progressive ratio (PR) schedule requires the subject to perform an increasing number of lever presses for the next successive presentation of a reinforcer (e.g., heroin or sucrose). […] BP is a dependent measure used to quantify the degree to which the subject will work to get the next administration of the drug which serves as a reinforcer in the self-administration paradigm. […]
Subjects were given access to self-administer sucrose pellets for 12-14 d for 2 h each day. […] All responses were recorded using the Med-Associates software. […]
Respiratory depression data were analyzed by two-way ANOVA (RAP-103 pretreatment×morphine treatment) followed by a Bonferroni's multiple comparison test. Physical dependence data were analyzed by a Student's t-test. […] SA PR challenge data were analyzed by a Student's t-test. […]

[6] = test system: opioid-induced respiratory depression; test: Example 4: treatment of a subject prescribed a high level of opioids; assay type: in vivo, human; details: oral pill, concurrent with opioids
Text: A subject is prescribed a high level of opioids to treat a pain. The subject is concurrently administered RAP-103 to treat opioid-induced respiratory depression. RAP-103 is orally administered to the subject as a pill to treat the opioid-induced respiratory depression. After administration, the subject has no change in their respiratory rate and blood oxygen levels (e.g., maintains full respiratory function).

[7] = assay type: in vivo, rats and guinea pigs
CCR8 = details: mechanism involving CCR8; cited from earlier work
CCR5 [8] = test system: CCR5
[9] = RAP-103 1, 3 mg/kg IP in morphine-naïve rats vs saline, P>0.05
[10] = RAP-103 1 or 3 mg/kg IP 30 min before morphine 5 mg/kg SC, 60 min
[11] = RAP-103 only vs drug-naïve, P>0.05

## D-Thr-D-Thr-D-Asn-D-Tyr-D-Thr [RAP-103]
CCR5 [1]
  inhibition of chemokine ligand binding, CCR5: at least partially inhibits
Neuropathic pain
  mechanical allodynia: attenuate
  thermal hyperalgesia: attenuate
[2]
  TH protein levels, PFC: significantly elevated
[3]; FIG. 10A
  brain entry, oral compared to IV dosing: preferentially entered the brain by oral compared to IV dosing
[3]; oral and IV dosing, rodents and non-human primates
  brain entry: quickly entered the brain
[4]; RAP-103 1 mg/kg IP before morphine 5 mg/kg SC
  respiratory rate: abolished
[4]; RAP-103 3 mg/kg IP before morphine 5 mg/kg SC, 60 min, P<0.01
  cumulative respiratory rate: normalized the morphine-induced increase in respiratory rate
[4]; [9]
  SpO2, RAP-103 by itself: did not produce effects on SpO2
  respiratory rate, RAP-103 by itself: did not produce effects on respiratory rate
[4]; [10]
  oxygen saturation (FIGS. 1A-1B): prevented the deficit in oxygen saturation
  respiratory rate (FIGS. 2A-2B): prevented the increase in respiratory rate
[5]
  sucrose PR breakpoints: not significantly different
  sucrose-taking (FR-1 SA): not significantly different
[6]
  blood oxygen levels: no change
  respiratory rate: no change
IBA1 mRNA; RAP-103 + morphine vs drug-naïve and morphine by itself, P<0.01
  IBA1 mRNA levels, NAC: significantly enhanced
IBA1 mRNA; RAP-103/morphine exposure, P>0.05
  IBA1 mRNA, PFC: significant changes in GFAP or IBA1 were not detected
IBA1 mRNA; RAP-103 pretreatment vs drug-naïve, P<0.05
  IBA1 mRNA levels, VTA: significantly increased IBA1 mRNA levels
IBA1 mRNA; morphine-naïve and morphine-abstinent rats
  microglial mRNA levels, VTA and NAC: enhanced microglial mRNA levels
[7]; IV or oral gavage, rats and guinea pigs (FIG. 10A)
  persistence at therapeutic levels in brain: at least 24 hrs
[7]; in vivo
  brain entry compared to plasma levels: preferentially enters the brain
CCR8
  microglial chemotaxis: inhibit
  microglial morphological change: inhibit
CCR5 [8]; [11]
  CCR5 protein levels, NAC: did not display significantly different levels
  CCR5 protein levels, VTA: not significantly different
CCR5 [8]; RAP-103 pretreatment 1 mg/kg IP + morphine, P<0.05
  CCR5 protein levels, NAC: normalized morphine-induced deficits in CCR5 levels
CCR5 [8]; rats receiving RAP-103 vs drug-naïve, P<0.05
  CCR5 protein levels, PFC: lower CCR5 levels
